From article PMC3974779, “Pterostilbene-Isothiocyanate Conjugate Suppresses Growth of Prostate Cancer Cells Irrespective of Androgen Receptor Status” (PLoS ONE, 2014)

Columns and labels:
Format in all cases: cell-based, human
LNCaP cells = assay: Cell cycle distribution by flow cytometry
Description: (§1) Cell cycle distribution and Annexin V/Propidium iodide (PI) positive cells were analyzed using flow cytometry. In brief, first the cells were seeded and treated with 0, 10, 20 and 40 μM conjugate in complete medium for 24 h. This was followed by trypsinizing and fixing in 70% ethanol, and finally washing with PBS. Subsequently, the cells were treated with RNase A (50 μg/ml), stained with PI (50 μg/ml) and incubated in the dark for 30 min at room temperature and analyzed by flow cytometry for cell cycle distribution. For apoptosis, the conjugate treated cells were stained with Alexa-Fluor 488-conjugated Annexin-V using the Vybrant-Apoptosis Assay Kit from Invitrogen (USA) as per the manufacturer’s protocol. The stained cells were then analyzed by fluorescence activated cell sorting (FACS Calibur, BD Biosciences, San Jose, CA, USA) and the data were standardized using Cell Quest 3.3 software.

PC-3 cells = assay: Cell cycle distribution by flow cytometry; conditions: PC-3, 40 μM, 24 h (control 22%)
Description: as §1

p-ERK in PC-3 cells = assay: Immunoblot of ERK phosphorylation; conditions: 24 h
Description: The whole-cell lysates were prepared as described previously in immunoprecipitation (IP) buffer containing 50 mM Tris-HCl (pH 8.0), 150 mM NaCl, 5 mM EDTA, and 1% Triton X-100. Protein aliquots of 500 μg were then incubated overnight at 4°C using 2 μg of antibody directed against AR. The Protein A-Cl Agarose beads were then added and further incubated for 6 h at 4°C. The immunoprecipitates were washed four times with the IP buffer and the immunocomplexes were recovered by boiling in SDS sample buffer. Finally the western blot was carried out using anti-AR, anti-SRC-1 and anti-GRIP-1 antibodies (Santa Cruz, CA, USA). For western blot analysis, the cell lysates were prepared after harvesting them in lysis buffer. About 40 μg of total protein was electrophoresed by 12% SDS-PAGE, and the western blotting was carried out using standard protocol. In brief, the analyzed proteins were transferred to nylon membranes. The blots were then blocked with TBST buffer (20 mM Tris-Cl, pH 7.5, 150 mM sodium chloride, 0.05% Tween-20) containing 5% skim milk powder. They were then washed with TBST buffer and incubated overnight at 4°C with the same buffer containing appropriate amounts of primary antibodies: caspase-3, Bax, Bcl-2, Akt, p-Akt, ERK, p-ERK, AR, SRC-1, GRIP-1 (1∶500) and β-actin (1∶1000). The blots were then washed and incubated with anti-rabbit secondary antibody (1∶20,000) conjugated with horseradish peroxidase (HRP). Color development was performed in the dark by using an ECL kit (Amersham, GE Healthcare, Buckinghamshire, UK). The developed blots were subjected to densitometric analysis by ImageJ 1.43 software (NIH, USA) using β-actin as internal control.
(§2) The siRNAs against human Akt and ERK and control siRNA were purchased commercially from Santa Cruz Biotechnology (USA). The LNCaP and PC-3 PCa cells were transfected with siRNAs (at a final concentration of 100 nM) using polyfect transfection reagent (Qiagen, CA, USA) according to manufacturer’s instructions. After 24 h of transfection, the cells were washed properly and replaced with fresh medium. The cells were then treated with 20 μM conjugate for 24 h, and finally protein lysates were prepared on completion of treatment. The levels of p-Akt, p-ERK and cleaved caspase-3 expressions were detected by Western blot analysis.

[1] = tested on: cleaved caspase-3 in LNCaP cells; assay: Akt/ERK silencing or inhibition, cleaved caspase-3 immunoblot
Description: as §2
Figure 5 Differential role of PI3K/Akt and MAPK/ERK pathways in conjugate induced apoptosis of prostate cancer cells. Effects of siRNA mediated silencing of Akt and ERK on conjugate-induced apoptosis of (A) PC-3 and (B) LNCaP cells. LNCaP and PC-3 PCa cells were transfected with siRNAs (at a final concentration of 100 nM) using polyfect transfection reagent. After 24 h of transfection the cells were treated with 20 μM conjugate and allowed to grow for another 24 h. The cell lysates were prepared and the level of p-Akt, p-ERK and cleaved caspase-3 proteins were detected by immunoblot analysis. The histogram on the right panel of each figure represents densitometric analyses of the image data and expressed as percent of control where the results are mean ± SEM of three independent experiments. *and # represents statistically significant difference with respect to control and 20 μM conjugate treated groups respectively at p<0.05.
Supplementary file pone.0093335.s001.tif: Figure S1 (A) Effects of the Akt Kinase inhibitor (A6730) and/or the ERK inhibitor (PD98059) on the conjugate-induced apoptosis of PC-3 and (B) LNCaP cells. The cells were pre-treated with A6730 (5 μM) and/or PD98059 (20 μM) for 1 h before the addition of 20 μM conjugate for additional 24 h (total inhibitor exposure time was 25 h). The collected cell lysates were then immunoblotted using respective antibodies. The histogram on the right panel of each figure represents densitometric analyses of the image data and expressed as percent of control where the results are mean ± SEM of three independent experiments. *and # represents statistically significant difference with respect to control and 20 μΜ conjugate treated groups respectively at p<0.05. (TIF) Click here for additional data file.

AR in LNCaP cells = assay: Immunofluorescence staining of endogenous AR; conditions: varying doses of conjugate, 20 μM RESV, DHT
Description: The cells were then incubated with AR rabbit polyclonal antibody diluted 1∶200 in blocking buffer for 1 h at RT. Finally, the cells were washed with PBS and incubated with FITC-labelled anti-rabbit secondary antibody diluted 1∶1000 in blocking buffer for 30 min at room temperature. The cells were then observed under a fluorescence microscope (Zeiss, Axiovert 25, Germany).

[2] = tested on: p53 protein in LNCaP cells; assay: Immunoblot of p53 with p53 inhibitor; conditions: 20 μM PFT-α, 20 and 40 μM conjugate, 24 h
Description: The whole-cell lysates were prepared as described previously in immunoprecipitation (IP) buffer containing 50 mM Tris-HCl (pH 8.0), 150 mM NaCl, 5 mM EDTA, and 1% Triton X-100. Protein aliquots of 500 μg were then incubated overnight at 4°C using 2 μg of antibody directed against AR. The Protein A-Cl Agarose beads were then added and further incubated for 6 h at 4°C. The immunoprecipitates were washed four times with the IP buffer and the immunocomplexes were recovered by boiling in SDS sample buffer. Finally the western blot was carried out using anti-AR, anti-SRC-1 and anti-GRIP-1 antibodies (Santa Cruz, CA, USA). For western blot analysis, the cell lysates were prepared after harvesting them in lysis buffer. About 40 μg of total protein was electrophoresed by 12% SDS-PAGE, and the western blotting was carried out using standard protocol. In brief, the analyzed proteins were transferred to nylon membranes. […]
Since there was no significant difference in the number of apoptotic cells between conjugate treated LNCaP (wild type p53) and PC-3 (p53 null) cells (p<0.05), it was intriguing to check if p53 has any role in conjugate induced apoptosis of PCa cells. […] Next we determined the effect of p53-inhibition on conjugate induced cell death by using MTT assay.

With COc1cc(/C=C/c2ccc(O)c(/C=N/NC(N)=S)c2)cc(OC)c1 [conjugate, Pterostilbene-isothiocyanate conjugate] the “accumulation of cells in G2/M phase” value (LNCaP cells; increasing doses of conjugate, 24 h) was 16–35%, the “cells in G2/M phase” value (LNCaP cells; treated cells, 24 h (control 11%)) was 35% and the “cells arrested in G2/M phase” value (PC-3 cells) was “approximately 50%”. The “reduction in level of p-ERK” value (p-ERK in PC-3 cells; PC-3, 20 μM) was 1.3 folds, the “reduction in level of p-ERK” value (p-ERK in PC-3 cells; PC-3, 40 μM) was 1.7 folds and the “increase in cleaved caspase-3 protein level” value ([1]; Akt-silenced LNCaP cells, 20 μM conjugate) was roughly 4.5 folds. The “increase in cleaved caspase-3 level” value ([1]; ERK-silenced LNCaP cells, 20 μM conjugate) was 6.5 folds, the “cleaved caspase-3 in ERK-silenced cells plus conjugate relative to conjugate alone” value ([1]; LNCaP, 20 μM conjugate) was “about 1.4 times” and the “level of cleaved caspase-3 vs conjugate alone” value ([1]; LNCaP, A6730 (5 μM) combined with 20 μM conjugate) was “did not show any significant increase”. For the same compound, the “level of cleaved caspase-3 vs conjugate alone” value ([1]; LNCaP, co-treatment with PD98059 (20 μM) and 20 μM conjugate) was “significantly increased”, the AR immunofluorescence intensity (AR in LNCaP cells) was “almost complete abolition of fluorescent intensity” and the “expression of p53 protein” value [2] was “dose dependent increase”.
